Experimental data reported in US20230390352A1, “COMPOSITION COMPRISING SALVIA MILTIORRHIZA EXTRACT AS ACTIVE INGREDIENT FOR PREVENTION AND TREATMENT OF DEPRESSION IN MENOPAUSAL WOMEN” (UNDBIO.CO.,LTD, priority 2020, published 2023).

Assays:
[1] = test system: natural aging-induced menopausal animal model; test: antidepressant efficacy verification experiment in natural aging-induced menopausal animal model (summary); format: in vivo; conditions: antidepressant refractory animal model
Source text: Accordingly, the Salvia miltiorrhiza extract of the present disclosure may be administered to patients with resistance to benzodiazepine or imipramine, and may be used to treat depression that is resistant to the drug.

[2] = stability (content) of ingredients included in the Salvia miltiorrhiza extract on storage; format: physicochemical; conditions: for Content (mg/g) of ingredient after 5 days of storage at room temperature of extract: 5 days at room temperature; for Content (mg/g) of ingredient in Salvia miltiorrhiza extract: before storage
Experimental: When the Salvia miltiorrhiza extract was stored at 95° C. for 0 hour, 1 hour, 2 hours, 3 hours, 4 hours and 6 hours, in order to confirm whether the stability of 5 types of ingredients of which the female hormone regulatory ability has been confirmed in Example embodiment 2-1 above was maintained, the ingredient contents of the stored samples were analyzed by time. In addition, when the Salvia miltiorrhiza extract was stored at room temperature for 1 day, 2 days, 3 days, 4 days and 5 days, the stability of the ingredients was confirmed through analysis of the contents of 5 types of ingredients included in the Salvia miltiorrhiza extract.
In addition, results of comparing the content of each ingredient included in the Salvia miltiorrhiza extract at various concentrations (0, 50, 70, and 100% ethanol) and the content after 5 days of storage at room temperature were shown together in Table 1 below.

[3] = test system: ER (female hormone receptor); test: female hormone receptor (ER) expression in MCF-7 BUS cell line by real-time PCR; format: cell-based; conditions: each ingredient 10 μg/mL, 72 hours
Experimental: Ingredients included in the Salvia miltiorrhiza extract obtained in Example embodiment 1 were confirmed, and in ingredients cryptotanshinone, danshensu, isotanshinone, salvianolic acid B, and tanshinone IIA, female hormone regulating ability was confirmed. An MCF-7 BUS cell line used in the experiment was received from Tufts University in the United States, and incubated in a CO2 incubator maintained at 37° C. and 5% CO2 by using a Dulbecco modified eagle medium (DMEM) (Gibco, USA) added with 10% fetal bovine serum (Gibco, USA) and 1% penicillin/streptomycin (Gibco, USA).
In the experiment, in order to evaluate the female hormone regulatory ability, the sensitivity to estrogen, one of the female hormones, was measured using the MCF-7 BUS cell line, and first, the MCF-7 BUS cell line was dispensed at 1×10^5 cells/well in a 60 mm culture dish, and then incubated in a CO2 incubator maintained at 37° C. and 5% CO2.
After incubation for 24 hours, each ingredient was treated at a concentration of 10 μg/mL, and 17β-Estradiol (E2) was treated with 10^−10 M as a positive control.
At this time, each primer was prepared by Takara, and ER was prepared with Forward primer: […] […] A CT value obtained through RT-PCR was converted into ΔCT, and this ΔCT value was analyzed through a change rate of an experimental group with respect to the control group, which was illustrated in FIG. 1.

| SMILES | Content (mg/g) of ingredient after 5 days of storage at room temperature of extract ([2]; extract made with 0% EtOH) [mg/g] | Content (mg/g) of ingredient in Salvia miltiorrhiza extract ([2]; extract made with 0% EtOH) [mg/g] | Content (mg/g) of ingredient after 5 days of storage at room temperature of extract ([2]; extract made with 50% EtOH) [mg/g] | Content (mg/g) of ingredient in Salvia miltiorrhiza extract ([2]; extract made with 50% EtOH) [mg/g] | Content (mg/g) of ingredient after 5 days of storage at room temperature of extract ([2]; extract made with 70% EtOH) [mg/g] | Content (mg/g) of ingredient in Salvia miltiorrhiza extract ([2]; extract made with 70% EtOH) [mg/g] | Content (mg/g) of ingredient after 5 days of storage at room temperature of extract ([2]; extract made with 100% EtOH) [mg/g] | Content (mg/g) of ingredient in Salvia miltiorrhiza extract ([2]; extract made with 100% EtOH) [mg/g] | antidepressant effect in natural aging-induced menopausal animal model [1] | female hormone receptor regulating effect (ER mRNA change rate, FIG. 1) [3] |
| --- | --- | --- | --- | --- | --- | --- | --- | --- | --- | --- |
| CN(C)CCCN1c2ccccc2CCc2ccccc21 [imipramine] | – | – | – | – | – | – | – | – | insufficient antidepressant effect | – |
| O=C(O)[C@H](O)Cc1ccc(O)c(O)c1 [Danshensu] | 0.32 | 0.34 | 1.22 | 1.28 | 24.19 | 25.17 | 17.33 | 18.32 | – | most remarkable female hormone receptor regulating effect |

Continued, in another order:

| Content (mg/g) of ingredient after 5 days of storage at room temperature of extract ([2]; extract made with 0% EtOH) [mg/g] | Content (mg/g) of ingredient in Salvia miltiorrhiza extract ([2]; extract made with 0% EtOH) [mg/g] | Content (mg/g) of ingredient after 5 days of storage at room temperature of extract ([2]; extract made with 50% EtOH) [mg/g] | Content (mg/g) of ingredient in Salvia miltiorrhiza extract ([2]; extract made with 50% EtOH) [mg/g] | Content (mg/g) of ingredient after 5 days of storage at room temperature of extract ([2]; extract made with 70% EtOH) [mg/g] | Content (mg/g) of ingredient in Salvia miltiorrhiza extract ([2]; extract made with 70% EtOH) [mg/g] | Content (mg/g) of ingredient after 5 days of storage at room temperature of extract ([2]; extract made with 100% EtOH) [mg/g] | Content (mg/g) of ingredient in Salvia miltiorrhiza extract ([2]; extract made with 100% EtOH) [mg/g] | SMILES | antidepressant effect in natural aging-induced menopausal animal model [1] | female hormone receptor regulating effect (ER mRNA change rate, FIG. 1) [3] |
| --- | --- | --- | --- | --- | --- | --- | --- | --- | --- | --- |
| 18.33 | 21.2 | 26.21 | 38.23 | 23.21 | 33.1 | 15.27 | 20.3 | O=C(/C=C/c1ccc(O)c2c1[C@H](C(=O)O[C@H](Cc1ccc(O)c(O)c1)C(=O)O)[C@@H](c1ccc(O)c(O)c1)O2)O[C@H](Cc1ccc(O)c(O)c1)C(=O)O [Salvianolic acid B] | – | – |
| 0.99 | 2.22 | 5.62 | 12.31 | 12.11 | 14.23 | 10.33 | 12.22 | Cc1coc2c1C(=O)c1ccc3c(C)cccc3c1C2=O [Isotanshinone] | – | – |
| 0.65 | 1.33 | 4.11 | 5.21 | 4.33 | 7.22 | 5.24 | 8.33 | Cc1coc2c1C(=O)C(=O)c1c-2ccc2c1CCCC2(C)C [Tanshinone IIA] | – | – |
